We go through one compound from PMC11499995 (Communications Biology, 2024).

The experiment has as its target T1, mNeonGreen (Branchiostoma lanceolatum, UniProt A0A1S4NYF2, C173I/S175A/W191I).
T1 sequence (A0A1S4NYF2 25-260 C173I/S175A/W191I): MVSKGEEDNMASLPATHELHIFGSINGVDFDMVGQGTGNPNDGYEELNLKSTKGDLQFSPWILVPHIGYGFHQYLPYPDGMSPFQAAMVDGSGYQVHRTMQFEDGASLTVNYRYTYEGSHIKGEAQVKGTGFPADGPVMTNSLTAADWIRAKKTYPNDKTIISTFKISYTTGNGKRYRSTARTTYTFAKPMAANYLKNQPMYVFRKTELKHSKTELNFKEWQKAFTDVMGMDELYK
The experiment can be described thus: fluorescence quenching titration, purified protein. It is filed as binding.

Usually Kd stands for the free concentration of one partner at which half of the binding sites on the other are occupied at equilibrium, for simple one-to-one binding. A low value points to higher affinity.

Compound `O=S(=O)(O)O` [sulfate] showed an equilibrium dissociation constant (Kd) of 33 ± 3 mM.
